We go through seven molecules from patent US6582910B1, “WbpP and method for assay of WbpP” (priority 1999, dated 2003).

The target in data set [1] is T1, WbpP (Pseudomonas aeruginosa, UniProt Q8KN66).
T1 construct: made in house; host or cells: E. coli BL21(DE3)pLysS, pET23 derivative
Briefly: DMAB spectrophotometric assay of epimerisation of UDP-GlcNAc and UDP-GalNAc. The data set is classed as biochemical. As to conditions: for Specific activity: 0.75 mM substrate. Here is the method: Determination of the enzymatic conversion of UDP-GlcNAc and UDP-GalNAc using p-dimethylaminobenzaldehyde (DMAB)—Reactions were performed with a total reaction volume of 35 μl at 37° C. in 20 mM Tris pH 8 unless stated otherwise. The specific amount of enzyme used, substrate concentrations, and incubation time are indicated in the legend of each figure. The reactions were stopped by acid hydrolysis of the UDP moiety of the substrate. For this purpose, the samples were acidified to pH 2 by addition of 7 μl of HCl 0.1 N, boiled for 6 min, and neutralised by addition of 7 μl of NaOH 0.1 N. For the spectrophotometric quantification of GalNAc and GlcNAc, the reagent DMAB was prepared at 10% in glacial acetic acid/HCl 9/1 v/v, and further diluted 1/10 in glacial acetic acid before use (Reissig et al. (1955)). For the assay itself, 100 μl of 0.2 M sodium tetraborate pH 9.1 were added to 50 μl of quenched and neutralised enzymatic reactions and boiled immediately for 3 min. 40 μl of this mixture were transferred to a microtitration plate and 200 μl of DMAB reagent were added. After incubation for 30 min at 37° C., the OD595 nm was recorded using a microplate reader. For practical reasons, the DMAB assay was carried out using a wavelength setting of 595 nm in the spectrophotometer. […] The assay was done in duplicate for each reaction tested. Standard curves were prepared using UDP-GlcNAc and UDP-GalNAc that were subjected to acid hydrolysis in the same conditions as described above.
FIG. 3: Study of the epimerisation of UDP-GlcNAc and UDP-GalNAc by WbpP using the DMAB assay. Panel A, standard curves obtained with each compound separately. Open circles, UDP-GlcNAc; Open squares, UDP-GalNAc. Panel B, comparison of the experimental data (closed triangles) obtained for mixtures of UDP-GalNAc and UDP-GlcNAc of different proportions (constant total sugar-nucleotide concentration of 0.75 mM) and the theoretical data (open triangles) calculated from the standard curves from panel 3A. 3C: Activity of WbpP as a function of the amount of enzyme added. The reactions were performed with […] substrate in a total volume of 35 μl for 8 min at 37° C. Closed circles, UDP-GlcNAc; Closed squares, UDP-GalNAc.
FIG. 6: Determination of the optimum pH and temperature for the epimerisation of UDP-GlcNAc by WbpP using the DMAB assay: For the pH study (panel A), the reactions were performed with 5 mM UDP-GlcNAc and 39 ng of enzyme in a total volume of 44 μl and incubated for 10 min at 37° C. The pH between 5 and 7 were obtained with 50 mM sodium acetate buffer (open circles), whereas pH 7 to 10 were obtained with 50 mM Tris-HCl (closed circles). For the temperature study (panel B), the reactions were performed in 50 mM Tris-HCl pH 8 with 5 mM UDP-GlcNAc and 0.78 ng of enzyme in a total volume of 44 μl and 30 min incubation. For both panels, two enzymatic reactions were set up in each experimental condition and two determinations of residual UDP-GlcNAc were made per reaction. Each point represents the average of the four determinations.

Data set [2] deals with T1, WbpP. Briefly: Capillary electrophoresis, kinetic parameters for UDP-GlcNAc and UDP-GalNAc. The conditions noted are these: acetylated substrates; for kcal: CE; for Km / Vmax: initial rates, 3 min, 37° C., 20 mM Tris pH 8, CE. Type of data set: biochemical. Here is the method: Determination of the kinetic parameters for UDP-GlcNAc and UDP-GalNAc by capillary electrophoresis—Reactions were performed at 37° C. in 20 mM Tris pH 8 with a total reaction volume of 44 μl. The amount of purified enzyme added was 234 ng and 117 ng for reaction with UDP-GlcNAc and UDP-GalNAc, respectively. After incubation at 37° C. for the required amount of time, the reactions were quenched by boiling the sample for 6 min. Time course studies were performed with final sugar-nucleotide concentrations of 0.075 and 1.75 mM. Samples were quenched after 0, 2, 4, 6, 8, 10 and 15 min. […] Capillary electrophoresis (CE) analysis was performed using a P/ACE 5000 system (Beckman, Fullerton, Calif.) with UV detection. The running buffer was 25 mM sodium tetraborate pH 9.4. The capillary was bare silica 75 μm×57 cm, with a detector at 50 cm. The capillary was conditioned before each run by washing with 0.2 M NaOH for 2 min, water for 2 min, and running buffer for 2 min. Samples were introduced by pressure injection for 4 s and the separation was performed at 22 kV. Peak integration was done using the Beckman P/ACE Station software. The calculation of kinetic parameters was done using the PRISM program.
FIG. 4: Capillary electrophoresis analysis of the epimerisation of UDP-GlcNAc and UDP-GalNAc by WbpP at equilibrium. The reactions were performed in a total volume of 35 μl with 1.5 mM substrate and 17 μg of enzyme. They were incubated at 37° C. for 2 h. 1, UDP-GalNAc alone; 2, UDP-GlcNAc alone; 3, UDP-GlaNAc+WbpP; 4, UDP-GlcNAc+WbpP.
FIG. 5: Time Course of epimerisation of UDP-GlcNAc and UDP-GalNAc by WbpP as measured by capillary electrophoresis. Reactions were performed at 37° C. in 20 mM Tris pH 8 with a total reaction volume of 44 μl. The amount of purified enzyme added was 234 ng and 117 ng for reaction with UDP-GlcNAc and UDP-GalNAc, respectively. Closed circles, UDP-GlcNAc 0.075 mM; Closed squares, UDP-GalNAc 0.075 mM; Open circles, UDP-GlcNAc 1.75 mM; Open squares, UDP-GalNAc 1.75 mM.

The target of data set [3] is T1, WbpP. Briefly: Requirement for NAD+ or divalent cations for enzymatic activity (capillary electrophoresis). Type of data set: biochemical. As to conditions: NAD+ 1 mM, divalent cations 4 mM, acetylated or non-acetylated substrates. Here is the method: Study of the Requirement for NAD+ or divalent cations for enzymatic activity—To access the requirement for NAD+ or divalent cations for the enzymatic activity of WbpP, reactions were carried out with or without NAD+ (1 mM final concentration), and with or without divalent cations (4 mM final concentration of MnCl2, MgCl2, or CaCl2) and monitored by capillary electrophoresis as described above.

Data set [4] is described as follows: Storage stability of purified WbpP. Type of data set: physicochemical. The conditions noted are these: −20° C. in 25% glycerol or 20% adonitol in Tris pH 8. Here is the method: Purification of WbpP by chromatography—Cells sedimented from 100 ml induced culture were resuspended in 10 ml of buffer A (5 mM imidazole, 20 mM Tris pH 8, 0.1 M NaCl). The cells were briefly sonicated (macrotip, sonicator XL2020 Heat systems Incorporated, power set to 4, 2 min total, 5 sec on, 5 sec off) on ice. Cell debris were removed by centrifugation at 13000×g for 15 min at 4° C. and the supernatant was applied to a 3 ml fast flow cielating sepharose column (Amersham-Pharmacia, Quebec) previously loaded with nickel sulfate (30 ml of 0.1 M) and equilibrated with 5 column volumes (CV) of buffer A. Loading of the sample as well as all washing and elution steps were done by gravity. After loading of the sample, the column was washed with 10 CV of buffer A and 5 CV of buffer B (20 mM imidazole, 20 mM Tris pH 8, 0.1M NaCl). Elution was carried out with 3 CV of buffer C (1 M imidazole, 20 mM Tris pH 8, 0.5 M NaCl 0.1 M). Fractions were collected every 1 CV. […] This fraction was subjected to further purification by anion exchange chromatography after dilution 1/30 in 50 mM Tris pH 8. Half of it was loaded onto a 1 ml column of Q Sepharose fast flow (Pharmacia). The column was washed with 30 CV of Tris buffer and the protein was eluted with 3 CV of 50 mM Tris pH 8, 0.5 M NaCl. […] Protein quantitation was done using the BCA reagent (Pierce, Rockford, Ill.).

Data set [5] deals with the molecule itself. Put plainly: gel filtration on G100 Sephadex, self-association (homodimer).
[6] abbreviates: fraction: anion exchange (purified WbpP).

Entries after “also recorded” stand apart in the source; their conditions may differ. Some results are limits rather than exact numbers.

For `CC(=O)N[C@H]1[C@@H](OP(=O)(O)OP(=O)(O)OC[C@H]2O[C@@H](n3ccc(=O)[nH]c3=O)[C@H](O)[C@@H]2O)O[C@H](CO)[C@@H](O)[C@@H]1O` [UDP-GlcNAc, UDP-N-acetylglucosamine], the Specific activity is given as 2.0 U/mg in data set [1] (fraction: IMAC), 2.3 U/mg in data set [1] (setting [6]), 1.1 U/mg in data set [1] (fraction: soluble fraction) and 0.2 U/mg in data set [1] (fraction: total cell extract). The “Specific activity of purified WbpP” value in data set [1] was determined as 2.3 Units/mg. In data set [2], this molecule had a kcal of 120 ± 3 min⁻¹. In addition, in data set [2], the Km was found to be 224 µM. In addition, the maximal velocity (Vmax) in data set [2] came to 741 ± 22 pmol/min.
In the case of `[Cl-].[Cl-].[Mg+2]` [Mg^2+], the “Necessity of addition to the reaction mixture for the C4 epimerase activity” value (“Necessity of addition” below) in data set [3] is given as “active without requiring addition”; in data set [3] (listed as Mg2^1), “not necessary”.
As to `[Ca+2].[Cl-].[Cl-]` [Ca^2+], the “Necessity of addition” value in data set [3] is reported as “not necessary; also recorded: active without requiring addition”.
As to `CC(=O)N[C@H]1[C@@H](OP(=O)(O)OP(=O)(O)OC[C@H]2O[C@@H](n3ccc(=O)[nH]c3=O)[C@H](O)[C@@H]2O)O[C@H](CO)[C@H](O)[C@@H]1O` [UDP-GalNAc, UDP-N-acetylgalactosamine], the “Maximum substrate conversion (at equilibrium)” value in data set [1] (acetylated substrates, epimerisation by WbpP) is ~70%. Further, the Specific activity in data set [1] (fraction: IMAC) turned out to be 4.6 U/mg; in data set [1] (setting [6]) it was 5.6 U/mg; in data set [1] (fraction: soluble fraction), 3.4 U/mg; in data set [1] (fraction: total cell extract), 2.6 U/mg. The “Specific activity of purified WbpP” value in data set [1] stood at 5.6 Units/mg. In data set [2], this molecule showed a kcal of 271 ± 7 min⁻¹. In addition, the Michaelis-Menten constant (Km) in data set [2] was 197 µM. The maximum rate (Vmax) in data set [2] was 840 ± 25 pmol/min.
Take `NC(=O)c1ccc[n+]([C@@H]2O[C@H](COP(=O)([O-])OP(=O)(O)OC[C@H]3O[C@@H](n4cnc5c(N)ncnc54)[C@H](O)[C@@H]3O)[C@@H](O)[C@H]2O)c1` [NAD^+]: the results for the “Necessity of addition” value in data set [3] and in data set [3] (listed as NAD^1) were “active without requiring addition” and “not necessary”, respectively.
As for `[Cl][Mn][Cl]` [Mn^2+], the “Necessity of addition” value in data set [3] is listed as “not necessary; also recorded: active without requiring addition”.

B1: WbpPO6 carrying a N-terminal hexahistidine tag (enzyme)
chain: MHHHHHHGSMGMMSRYEELRKELPAQPKVWLITGVAGFIGSNLLETLLKLDQKVVGLDNFATGHQRNLDEVRSLVSEKQWSNFKFIQGDIRNLDDCNNACAGVDYVLHQAALGSVPRSINDPITSNATNIDGFLNMLIAARDAKVQSFTYAASSSTYGDHPGLPKVEDTIGKPLSPYAVTKYVNELYADVFSRCYGFSTIGLRYFNVFGRRQDPNGAYAAVIPKWTSSMIQGDDVYINGDGETSRDFCYIENTVQANLLAATAGLDARNQVYNIAVGGRTSLNQLFFALRDGLAENGVSYHREPVYRDFREGDVRHSLADISKAAKLLGYAPKYDVSAGVALAMPWYIMFLK
notes: Expressed in E. coli BL21(DE3)pLysS from a pET23 derivative and purified by nickel chelation and anion exchange; In the Western immunoblot it stood as the SDS-denatured single chain; this is not a protein partner; also called WbpP epimerase; UDP-GlcNAc C4 epimerase
Consider B1, for which the Activity after storage result in data set [4] is listed as “without any significant loss of activity”. Further, the “pH with significant activity” value in data set [1] (epimerisation of UDP-GlcNAc) is recorded as > 6.5. Further, in data set [5], the binding result is “binds”.
